US10131652B2, “Pyrimidinyloxy benzene derivatives as herbicides” (E. I. DU PONT DE NEMOURS AND COMPANY, priority 2014, dated 2018)

Experiments:
Assay type in all cases: in vivo
[1] = tested on: blackgrass (Alopecurus myosuroides); test: Test B postemergence plant response
Description: (§1) At the same time, plants selected from these crop and weed species and also blackgrass (Alopecurus myosuroides), and galium (catchweed bedstraw, Galium aparine) were planted in pots containing the same blend of loam soil and sand and treated with postemergence applications of test chemicals formulated in the same manner. Plants ranged in height from 2 to 10 cm and were in the one- to two-leaf stage for the postemergence treatment. Treated plants and untreated controls were maintained in a greenhouse for approximately 10 days, after which time all treated plants were compared to untreated controls and visually evaluated for injury. Plant response ratings, summarized in Table B, are based on a 0 to 100 scale where 0 is no effect and 100 is complete control. A dash (-) response means no test result.

[2] = tested on: galium (catchweed bedstraw, Galium aparine); test: Test B postemergence plant response
Description: as §1

[3] = tested on: kochia (Kochia scoparia); test: Test B pre-/postemergence plant response
Description: as §1, with “Seeds of plant species selected from bamyardgrass (Echinochloa crus-galli), kochia (Kochia scoparia), ragweed (common ragweed, Ambrosia elatior), Italian ryegrass (Lolium multiflorum), large (Lg) crabgrass (Digitaria sanguinalis), giant foxtail (Setaria faberii), momingglory (Ipomoea spp.), pigweed (Amaranthus retroflexus), velvetleaf (Abutilon theophrasti), wheat (Triticum aestivum), and corn (Zea mays) were planted into a blend of loam soil and sand and treated preemergence with a directed soil spray using test chemicals formulated in a non-phytotoxic solvent mixture which included a surfactant. At” for “At”

[4] = tested on: giant foxtail (Setaria faberii); test: Test B pre-/postemergence plant response
Description: as §1, with “Seeds of plant species selected from bamyardgrass (Echinochloa crus-galli), kochia (Kochia scoparia), ragweed (common ragweed, Ambrosia elatior), Italian ryegrass (Lolium multiflorum), large (Lg) crabgrass (Digitaria sanguinalis), giant foxtail (Setaria faberii), momingglory (Ipomoea spp.), pigweed (Amaranthus retroflexus), velvetleaf (Abutilon theophrasti), wheat (Triticum aestivum), and corn (Zea mays) were planted into a blend of loam soil and sand and treated preemergence with a directed soil spray using test chemicals formulated in a non-phytotoxic solvent mixture which included a surfactant. At” for “At”

[5] = tested on: Italian ryegrass (Lolium multiflorum); test: Test B pre-/postemergence plant response
Description: as §1, with “Seeds of plant species selected from bamyardgrass (Echinochloa crus-galli), kochia (Kochia scoparia), ragweed (common ragweed, Ambrosia elatior), Italian ryegrass (Lolium multiflorum), large (Lg) crabgrass (Digitaria sanguinalis), giant foxtail (Setaria faberii), momingglory (Ipomoea spp.), pigweed (Amaranthus retroflexus), velvetleaf (Abutilon theophrasti), wheat (Triticum aestivum), and corn (Zea mays) were planted into a blend of loam soil and sand and treated preemergence with a directed soil spray using test chemicals formulated in a non-phytotoxic solvent mixture which included a surfactant. At” for “At”

[6] = tested on: barnyardgrass (Echinochloa crus-galli); test: Test B pre-/postemergence plant response
Description: as §1, with “Seeds of plant species selected from bamyardgrass (Echinochloa crus-galli), kochia (Kochia scoparia), ragweed (common ragweed, Ambrosia elatior), Italian ryegrass (Lolium multiflorum), large (Lg) crabgrass (Digitaria sanguinalis), giant foxtail (Setaria faberii), momingglory (Ipomoea spp.), pigweed (Amaranthus retroflexus), velvetleaf (Abutilon theophrasti), wheat (Triticum aestivum), and corn (Zea mays) were planted into a blend of loam soil and sand and treated preemergence with a directed soil spray using test chemicals formulated in a non-phytotoxic solvent mixture which included a surfactant. At” for “At”

[7] = tested on: ragweed (common ragweed, Ambrosia elatior); test: Test B pre-/postemergence plant response
Description: as §1, with “Seeds of plant species selected from bamyardgrass (Echinochloa crus-galli), kochia (Kochia scoparia), ragweed (common ragweed, Ambrosia elatior), Italian ryegrass (Lolium multiflorum), large (Lg) crabgrass (Digitaria sanguinalis), giant foxtail (Setaria faberii), momingglory (Ipomoea spp.), pigweed (Amaranthus retroflexus), velvetleaf (Abutilon theophrasti), wheat (Triticum aestivum), and corn (Zea mays) were planted into a blend of loam soil and sand and treated preemergence with a directed soil spray using test chemicals formulated in a non-phytotoxic solvent mixture which included a surfactant. At” for “At”

[8] = tested on: wheat (Triticum aestivum); test: Test B pre-/postemergence plant response
Description: as §1, with “Seeds of plant species selected from bamyardgrass (Echinochloa crus-galli), kochia (Kochia scoparia), ragweed (common ragweed, Ambrosia elatior), Italian ryegrass (Lolium multiflorum), large (Lg) crabgrass (Digitaria sanguinalis), giant foxtail (Setaria faberii), momingglory (Ipomoea spp.), pigweed (Amaranthus retroflexus), velvetleaf (Abutilon theophrasti), wheat (Triticum aestivum), and corn (Zea mays) were planted into a blend of loam soil and sand and treated preemergence with a directed soil spray using test chemicals formulated in a non-phytotoxic solvent mixture which included a surfactant. At” for “At”

[9] = tested on: corn (Zea mays); test: Test B pre-/postemergence plant response
Description: as §1, with “Seeds of plant species selected from bamyardgrass (Echinochloa crus-galli), kochia (Kochia scoparia), ragweed (common ragweed, Ambrosia elatior), Italian ryegrass (Lolium multiflorum), large (Lg) crabgrass (Digitaria sanguinalis), giant foxtail (Setaria faberii), momingglory (Ipomoea spp.), pigweed (Amaranthus retroflexus), velvetleaf (Abutilon theophrasti), wheat (Triticum aestivum), and corn (Zea mays) were planted into a blend of loam soil and sand and treated preemergence with a directed soil spray using test chemicals formulated in a non-phytotoxic solvent mixture which included a surfactant. At” for “At”

[10] = tested on: pigweed (Amaranthus retroflexus); test: Test B pre-/postemergence plant response
Description: as §1, with “Seeds of plant species selected from bamyardgrass (Echinochloa crus-galli), kochia (Kochia scoparia), ragweed (common ragweed, Ambrosia elatior), Italian ryegrass (Lolium multiflorum), large (Lg) crabgrass (Digitaria sanguinalis), giant foxtail (Setaria faberii), momingglory (Ipomoea spp.), pigweed (Amaranthus retroflexus), velvetleaf (Abutilon theophrasti), wheat (Triticum aestivum), and corn (Zea mays) were planted into a blend of loam soil and sand and treated preemergence with a directed soil spray using test chemicals formulated in a non-phytotoxic solvent mixture which included a surfactant. At” for “At”

[11] = tested on: ducksalad (Heteranthera limosa); test: Test C flooded paddy test plant response; details: Flood, 250 g ai/ha; scale of 0 to 100 where 0 is no effect and 100 is complete control; 13 to 15 days
Method: (§2) Plant species in the flooded paddy test selected from rice (Oryza sativa), small-flower umbrella sedge (Cyperus difformis), ducksalad (Heteranthera limosa), and bamyardgrass (Echinochloa crus-galli) were grown to the 2-leaf stage for testing. At time of treatment, test pots were flooded to 3 cm above the soil surface, treated by application of test compounds directly to the paddy water, and then maintained at that water depth for the duration of the test. Treated plants and controls were maintained in a greenhouse for 13 to 15 days, after which time all species were compared to controls and visually evaluated. Plant response ratings, summarized in Table C, are based on a scale of 0 to 100 where 0 is no effect and 100 is complete control. A dash (-) response means no test result.

[12] = tested on: small-flower umbrella sedge (Cyperus difformis); test: Test C flooded paddy test plant response; details: Flood, 250 g ai/ha; scale of 0 to 100 where 0 is no effect and 100 is complete control; 13 to 15 days
Method: as §2

[13] = tested on: barnyardgrass (Echinochloa crus-galli); test: Test C flooded paddy test plant response; details: Flood, 250 g ai/ha; scale of 0 to 100 where 0 is no effect and 100 is complete control; 13 to 15 days
Method: as §2

[14] = tested on: rice (Oryza sativa); test: Test C flooded paddy test plant response; details: Flood, 250 g ai/ha; scale of 0 to 100 where 0 is no effect and 100 is complete control; 13 to 15 days
Method: as §2

[15] = 31 g ai/ha, Postemergence, 0 to 100 scale, 0 no effect, 100 complete control
[16] = 125 g ai/ha, postemergence, 0 to 100 scale, 0 no effect, 100 complete control
[17] = Preemergence, 31 g ai/ha, 0 to 100 scale (0 no effect, 100 complete control)
[18] = Preemergence, 125 g ai/ha, 0 to 100 scale where 0 is no effect and 100 is complete control
[19] = Postemergence, 500 g ai/ha, 0 to 100 scale (0 no effect, 100 complete control)
[20] = Preemergence, 500 g ai/ha, 0 to 100 scale where 0 is no effect and 100 is complete control

Row | Structure (SMILES) | Plant response rating, Blackgrass [1, 16] | Plant response rating, Galium [2, 16] | Plant response rating, Kochia [3, 16] | Plant response rating, Kochia [3, 18] | Plant response rating, Foxtail, Giant [4, 16] | Plant response rating, Foxtail, Giant [4, 18] | Plant response rating, Ryegrass, Italian [5, 16] | Plant response rating, Ryegrass, Italian [5, 18] | Plant response rating, Barnyardgrass [6, 16] | Plant response rating, Barnyardgrass [6, 18] | Plant response rating, Ragweed [7, 16] | Plant response rating, Ragweed [7, 18] | Plant response rating, Wheat [8, 16] | Plant response rating, Corn [9, 16] | Plant response rating, Pigweed [10, 16] | Plant response rating, Pigweed [10, 18] | Ducksalad plant response rating [11] | Sedge, Umbrella plant response rating [12] | Barnyardgrass plant response rating [13] | Rice plant response rating [14] | further results
1 | N#Cc1cc(-c2ccccc2Oc2ncc(Cl)cn2)no1 [Compound 38] | 0 | 30 | 30 | 0 | 0 | 0 | 0 | 0 | 0 | 0 | 0 | 0 | 0 | 0 | 20 | 40 | 60 | 0 | 0 | 0 | Plant response rating, Blackgrass [1, 15]: 0; Plant response rating, Galium [2, 15]: 20; Plant response rating, Kochia [3, 15]: 0; Kochia plant response rating [3, 17]: 0; Plant response rating, Foxtail, Giant [4, 15]: 0; Foxtail, Giant plant response rating [4, 17]: 0; Plant response rating, Ryegrass, Italian [5, 15]: 0; Ryegrass, Italian plant response rating [5, 17]: 0; Plant response rating, Barnyardgrass [6, 15]: 0; Barnyardgrass plant response rating [6, 17]: 0; Plant response rating, Ragweed [7, 15]: 0; Ragweed plant response rating [7, 17]: 0; Plant response rating, Wheat [8, 15]: 0; Plant response rating, Corn [9, 15]: 0; Plant response rating, Pigweed [10, 15]: 0; Pigweed plant response rating [10, 17]: 0
2 | Cn1nnnc1-c1ccccc1Oc1ncc(Cl)cn1 [Compound 47] | 0 | 30 | 60 | 60 | 0 | 10 | 0 | 0 | 0 | 0 | 20 | 10 | 0 | 0 | 50 | 30 | 0 | 0 | 0 | 0 | Plant response rating, Blackgrass [1, 19]: 0; Plant response rating, Galium [2, 19]: 60; Plant response rating, Kochia [3, 19]: 80; Plant response rating, Kochia [3, 20]: 70; Plant response rating, Foxtail, Giant [4, 19]: 50; Plant response rating, Foxtail, Giant [4, 20]: 30; Plant response rating, Ryegrass, Italian [5, 19]: 0; Plant response rating, Ryegrass, Italian [5, 20]: 0; Plant response rating, Barnyardgrass [6, 19]: 0; Plant response rating, Barnyardgrass [6, 20]: 0; Plant response rating, Ragweed [7, 19]: 30; Plant response rating, Ragweed [7, 20]: 60; Plant response rating, Wheat [8, 19]: 10; Plant response rating, Corn [9, 19]: 0; Plant response rating, Pigweed [10, 19]: 70; Plant response rating, Pigweed [10, 20]: 60
3 | Cn1nnc(-c2ccccc2Oc2ncc(Cl)cn2)n1 [Compound 48] | 40 | 70 | 50 | 60 | 0 | 10 | 0 | 40 | 0 | 0 | 50 | 50 | 0 | 0 | 70 | 80 | 0 | 0 | 0 | 0 | Plant response rating, Blackgrass [1, 19]: 60; Plant response rating, Galium [2, 19]: 100; Plant response rating, Kochia [3, 19]: 100; Plant response rating, Kochia [3, 20]: 80; Plant response rating, Foxtail, Giant [4, 19]: 40; Plant response rating, Foxtail, Giant [4, 20]: 50; Plant response rating, Ryegrass, Italian [5, 19]: 0; Plant response rating, Ryegrass, Italian [5, 20]: 50; Plant response rating, Barnyardgrass [6, 19]: 0; Plant response rating, Barnyardgrass [6, 20]: 40; Plant response rating, Ragweed [7, 19]: 70; Plant response rating, Ragweed [7, 20]: 60; Plant response rating, Wheat [8, 19]: 0; Plant response rating, Corn [9, 19]: 10; Plant response rating, Pigweed [10, 19]: 100; Plant response rating, Pigweed [10, 20]: 100
4 | Cn1nnnc1-c1ccccc1Oc1ncc(Br)cn1 [Compound 49] | 0 | 20 | 30 | 0 | 0 | 0 | 0 | 0 | 0 | 0 | 30 | 0 | 10 | 0 | 10 | 20 | 0 | 0 | 0 | 0 | Plant response rating, Blackgrass [1, 19]: 10; Plant response rating, Galium [2, 19]: 60; Plant response rating, Kochia [3, 19]: 30; Plant response rating, Kochia [3, 20]: 70; Plant response rating, Foxtail, Giant [4, 19]: 10; Plant response rating, Foxtail, Giant [4, 20]: 20; Plant response rating, Ryegrass, Italian [5, 19]: 0; Plant response rating, Ryegrass, Italian [5, 20]: 0; Plant response rating, Barnyardgrass [6, 19]: 10; Plant response rating, Barnyardgrass [6, 20]: 0; Plant response rating, Ragweed [7, 19]: 30; Plant response rating, Ragweed [7, 20]: 0; Plant response rating, Wheat [8, 19]: 20; Plant response rating, Corn [9, 19]: 10; Plant response rating, Pigweed [10, 19]: 30; Plant response rating, Pigweed [10, 20]: 30
5 | Cn1cc(-c2ccccc2Oc2ncc(Cl)cn2)nn1 [Compound 51] | 0 | 60 | 70 | 10 | 10 | 10 | 0 | 0 | 0 | 0 | 20 | 50 | 0 | 0 | 70 | 50 | 30 | 0 | 0 | 0 | Plant response rating, Blackgrass [1, 19]: 50; Plant response rating, Galium [2, 19]: 90; Plant response rating, Kochia [3, 19]: 100; Plant response rating, Kochia [3, 20]: 70; Plant response rating, Foxtail, Giant [4, 19]: 50; Plant response rating, Foxtail, Giant [4, 20]: 60; Plant response rating, Ryegrass, Italian [5, 19]: 0; Plant response rating, Ryegrass, Italian [5, 20]: 0; Plant response rating, Barnyardgrass [6, 19]: 0; Plant response rating, Barnyardgrass [6, 20]: 10; Plant response rating, Ragweed [7, 19]: 60; Plant response rating, Ragweed [7, 20]: 50; Plant response rating, Wheat [8, 19]: 10; Plant response rating, Corn [9, 19]: 0; Plant response rating, Pigweed [10, 19]: 80; Plant response rating, Pigweed [10, 20]: 100
